Reference: patent publication US5464848A, “1,2,4-oxadiazolyl-phenoxyalkylisoxazoles and their use as antiviral agents” (Sterling Winthrop Inc., priority 1993, dated 1995)
≈ marks a conversion by molar mass, not a printed value.

System: human rhinovirus (HRV) serotypes, panel T
Experiment: MIC50/MIC80 over panel T of fifteen human rhinovirus serotypes (HeLa cell CPE)
Assay type: cell-based
Conditions: for MIC50: minimum concentration required to inhibit 50% of the tested serotypes; for MIC80: minimum concentration required to inhibit 80% of the tested serotypes
Procedure: They are useful in inhibiting virus replication in vitro and are primarily active against picornaviruses, including enteroviruses, echovirus and coxsackie virus, especially rhinoviruses. […] The test procedure used was as follows: The MIC values were determined by an automated tissue culture infectious dose 50% (TCID-50) assay. HeLa cells in monoloyers in 96-well cluster plates were infected with a dilution of virus which had been shown empirically to produce 80% to 100% cytopathic effect (CPE) in 3 days in the absence of drug. The compound to be tested was serially diluted through 10, 2-fold cycles and added to the infected cells. After a 3 day incubation at 33° C. and 2.5% carbon dioxide, the cells were fixed with a 5% solution of glutaraldehyde followed by staining with a 0.25% solution of crystal violet in water. The plates were then rinsed, dried, and the amount of stain remaining in the well (a measure of intact cells) was quantitated with an optical density reader. The MIC was determined to be the concentration of compound which protected 50% of the cells from virus-induced CPE relative to an untreated virus control.
In the above test procedures, representative compounds of formula I were tested against some the serotypes from either a panel of fifteen human rhinovirus (HRV) serotypes, (noted in the table as panel T) namely, HRV-2, -14, -1A, -1B, -6, -21, -22, -15, -25, -30, -50, -67, -89, -86 and -41 or against some of the serotypes from a panel of 10 human rhinovirus serotypes namely HRV-3, -4, -5, -9, -16, -18, -38, -66, -75 and -61, (noted in the table as panel B) and the MIC value, expressed in micrograms per milliliter ([…]), for each rhinovirus serotype was determined for each virus, example 1e is given as an example of the data. Then MIC50 and MIC80 values, which are the minimum concentrations of the compound required to inhibit 50% and 80%, respectively, of the tested serotypes were determined.
The following Table gives the test results for representative compounds of the invention. The panel of viruses used in the test appears before the MIC80 and MIC50 figure and the number of serotypes which the compound is tested against (N) is indicated after the MIC80 and MIC50 figure.

Cc1cc(-c2noc(C(F)(F)F)n2)cc(C)c1OCCCc1cc(C2CC2)no1 [Example 23, 3-Cyclopropyl-5-{3-[2,6-dimethyl-4-(5-trifluoromethyl-1,2,4-oxadiazol-3-yl)phenoxy]propyl}-isoxazole]
MIC50 (Human rhinovirus sp., 72 h): 0.625 µg/mL (≈ 1.53 µM) | MIC80: 0.204 µg/mL (≈ 0.501 µM)

Cc1cc(CCCOc2c(C)cc(-c3noc(C(F)F)n3)cc2Cl)on1 [Example 49d, 5-{3-[2,-Methyl-6-Chloro-4-(5-difluoromethyl-1,2,4-oxadiazol-3-yl)phenoxy]-propyl}-3-methylisoxazole]
MIC50 (Human rhinovirus sp., 72 h): 99 µg/mL (≈ 258 µM) | MIC80: 99 µg/mL (≈ 258 µM)

CN=c1[nH]c(-c2cc(C)c(OCCCc3cc(C)no3)c(C)c2)no1 [Example 18, 5-{3-[2,6-Dimethyl-4-(5-methylimino-4,5-dihydro-1,2,4-oxadiazol-3-yl)phenoxy]propyl}-3-methylisoxazole]
MIC50 (Human rhinovirus sp., 72 h): 0.325 µg/mL (≈ 0.949 µM) | MIC80: 0.128 µg/mL (≈ 0.374 µM)

COCc1nc(-c2cc(C)c(OCCCc3cc(C)no3)c(C)c2)no1 [Example 5, 5-{3-[2,6-Dimethyl-4-(5-methoxymethyl-1,2,4-oxadiazol-3-yl)phenoxy]propyl}-3-methylisoxazole]
MIC50 (Human rhinovirus sp., 72 h): 0.153 µg/mL (≈ 0.428 µM) | MIC80: 0.037 µg/mL (≈ 0.104 µM)

Cc1cc(CCCOc2c(C)cc(-c3noc(CC(F)(F)F)n3)cc2C)on1 [Example 43, 5-{3-[2,6-Dimethyl-4-(5-(2,2,2-trifluoroethyl)-1,2,4-oxadiazol-3-yl)phenoxy]propyl}-3-methylisoxazole]
MIC50 (Human rhinovirus sp., 72 h): 99 µg/mL (≈ 250 µM) | MIC80: 99 µg/mL (≈ 250 µM)

CCc1cc(CCCOc2c(C)cc(-c3noc(C4CC4)n3)cc2C)on1 [Example 25, 5-{3-[4-(5-Cyclopropyl-1,2,4-oxadiazol-3-yl) -2,6-dimethylphenoxy]propyl}-3-ethylisoxazole]
MIC50 (Human rhinovirus sp., 72 h): 0.312 µg/mL (≈ 0.849 µM) | MIC80: 0.085 µg/mL (≈ 0.231 µM)

Cc1cc(-c2noc(C3CC3)n2)cc(C)c1OCCCc1cc(CO)no1 [Example 39c, 5-{3-[4-(5-Cyclopropyl-1,2,4-oxadiazol-3-yl)-2,6-dimethylphenoxy]propyl}-3-(hydroxymethyl) isoxazole]
MIC50 (Human rhinovirus sp., 72 h): 0.187 µg/mL (≈ 0.506 µM) | MIC80: 0.035 µg/mL (≈ 0.0947 µM)

Cc1cc(-c2noc(C(F)(F)F)n2)cc(C)c1OCCCc1cc(C(=O)O)no1 [Example 56e]
MIC50 (Human rhinovirus sp., 72 h): 99 µg/mL (≈ 241 µM) | MIC80: 5.304 µg/mL (≈ 12.9 µM)

Cc1cc(CCCOc2c(C)cc(-c3noc(C(Cl)(Cl)Cl)n3)cc2C)on1 [Example 12, 5-{3-[2,6-Dimethyl-4-(5-trichloromethyl-1,2,4-oxadiazol-3-yl)-phenoxy]propyl}-3-methylisoxazole]
MIC50 (Human rhinovirus sp., 72 h): 2.94 µg/mL (≈ 6.83 µM) | MIC80: 0.662 µg/mL (≈ 1.54 µM)

Cc1cc(CCCOc2c(C)cc(-c3noc(=O)[nH]3)cc2C)on1 [Example 8, 5-{3-[2,6-Dimethyl-4-(5-oxo-4,5-dihydro-1,2,4-oxadiazol-3-yl)phenoxy]propyl}-3-methylisoxazole]
MIC50 (Human rhinovirus sp., 72 h): 99 µg/mL (≈ 301 µM) | MIC80: 99 µg/mL (≈ 301 µM)

Cc1cc(CCCOc2ccc(-c3noc(C4CCC4)n3)cc2)on1 [Example 54e, 5-{3-[4-(5-cyclobutyl-1,2,4-oxadiazol-3-yl)phenoxy]propyl}-3-methylisoxazole]
MIC50 (Human rhinovirus sp., 72 h): 99 µg/mL (≈ 292 µM) | MIC80: 0.1045 µg/mL (≈ 0.308 µM)

Cc1cc(CCCOc2c(C)cc(-c3noc(C(N)=O)n3)cc2C)on1 [Example 38, 5-{3-[4-(5-Aminocarbonyl-1,2,4-oxadiazol-3-yl)-2,6-dimethyl-phenoxy]propyl}-3-methylisoxazole]
MIC50 (Human rhinovirus sp., 72 h): 99 µg/mL (≈ 278 µM) | MIC80: 0.839 µg/mL (≈ 2.35 µM)

Cc1ccc(S(=O)(=O)OCc2nc(-c3cc(C)c(OCCCc4cc(C)no4)c(C)c3)no2)cc1 [Example 42, 5-{3-[2,6-Dimethyl-4-(5-(4-methylphenylsulfonyloxymethyl) -1,2,4-oxadiazol-3-yl)phenoxy]propyl}-3-methylisoxazole]
MIC50 (Human rhinovirus sp., 72 h): 99 µg/mL (≈ 199 µM) | MIC80: 99 µg/mL (≈ 199 µM)

Cc1cc(CCCOc2c(Cl)cc(-c3noc(C(F)(F)F)n3)cc2C#N)on1 [Example 61e, 5-{3-[4-(5-Trifluoromethyl-1,2,4-oxadiazol-3-yl)2-cyano-6-chlorophenoxy]-propyl}-3-methylisoxazole]
MIC50 (Human rhinovirus sp., 72 h): 0.706 µg/mL (≈ 1.71 µM) | MIC80: 0.3355 µg/mL (≈ 0.813 µM)

Cc1cc(-c2noc(C3CC3)n2)cc(C)c1OCCCc1cc(OCCO)no1 [Example 44, 5-{3-[4-(5-Cyclopropyl-1,2,4-oxadiazol-3-yl)-2,6-dimethylphenoxy]propyl}-3-(2-hydroxyethoxy)isoxazole]
MIC80: 0.385 µg/mL (≈ 0.964 µM)

Cc1cc(CCCOc2c(C)cc(-c3noc(=N)[nH]3)cc2C)on1 [Example 15, 5-{3-[4-(5-Imino-4,5-dihydro-1,2,4-oxadiazol-3-yl)-2,6-dimethylphenoxy]propyl}-3-methylisoxazole]
MIC50 (Human rhinovirus sp., 72 h): 99 µg/mL (≈ 301 µM) | MIC80: 99 µg/mL (≈ 301 µM)

Cc1cc(CCCOc2c(C)cc(-c3noc(C#N)n3)cc2C)on1 [Example 39, 5-{3-[4-(5-Cyano-1,2,4-oxadiazol-3-yl)-2,6-dimethylphenoxy]-propyl}-3-methylisoxazole]
MIC50 (Human rhinovirus sp., 72 h): 99 µg/mL (≈ 293 µM) | MIC80: 1.848 µg/mL (≈ 5.46 µM)

COCc1cc(CCCOc2c(C)cc(-c3noc(C(F)(F)F)n3)cc2C)on1 [Example 21, 5-{3-[2,6-Dimethyl-4-(5-trifluoromethyl-1,2,4-oxadiazol-3-yl)phenoxy]propyl}-3-(methoxymethyl) -isoxazole]
MIC50 (Human rhinovirus sp., 72 h): 1.56 µg/mL (≈ 3.8 µM) | MIC80: 0.0575 µg/mL (≈ 0.14 µM)

Cc1cc(CCCOc2c(C)cc(-c3noc(C4CC4)n3)cc2C)on1 [Example 4, 5-{3-[4-(5-Cyclopropyl-1,2,4-oxadiazol-3-yl) -2,6-dimethylphenoxy]propyl}-3-methylisoxazole]
MIC50 (Human rhinovirus sp., 72 h): 3.15 µg/mL (≈ 8.9 µM) | MIC80: 0.057 µg/mL (≈ 0.161 µM)

Cc1cc(CCCOc2c(C)cc(-c3nc(C4CC4)no3)cc2C)on1 [Example 45l, 5-{3-[2,6-Dimethyl-4,(5-cyclopropyl-1,2,4-oxadiazol-3-yl)phenoxy]propyl}-3-methylisoxazole]
MIC50 (Human rhinovirus sp., 72 h): 0.558 µg/mL (≈ 1.58 µM) | MIC80: 0.153 µg/mL (≈ 0.433 µM)

5-{3-[4-(5-Trifluoromethyl-1,2,4-oxadiazol-3-yl)2-cyano-6-chlorophenoxy]-propyl}-3-methylisoxazole [Example 62f]
MIC50: 0.213 µg/mL | MIC80: 0.09 µg/mL

CC(=O)OC(C)c1nc(-c2cc(C)c(OCCCc3cc(C)no3)c(C)c2)no1 (centres unmarked) [Example 11, 5-{3-[2,6-Dimethyl-4-(5-(1-methylcarbonyloxy-ethyl)-1,2,4-oxadiazol-3-yl)phenoxy]propyl}-3-methylisoxazole]
MIC50 (Human rhinovirus sp., 72 h): 1.98 µg/mL (≈ 4.97 µM) | MIC80: 0.2485 µg/mL (≈ 0.622 µM)

Cc1cc(CCCOc2c(C)cc(-c3nc(C(F)(F)F)no3)cc2C)on1 [Example 46c]
MIC50 (Human rhinovirus sp., 72 h): 0.197 µg/mL (≈ 0.517 µM) | MIC80: 0.1 µg/mL (≈ 0.262 µM)

CCOc1cc(CCCOc2c(C)cc(-c3noc(C4CC4)n3)cc2C)on1 [Example 37, 5-{3-[4-(5-Cyclopropyl-1,2,4-oxadiazol-3-yl)-2,6-dimethyl-phenoxy]propyl}-3-ethoxyisoxazole]
MIC50 (Human rhinovirus sp., 72 h): 0.352 µg/mL (≈ 0.918 µM) | MIC80: 0.91 µg/mL (≈ 2.37 µM)

COc1nc(-c2cc(C)c(OCCCc3cc(C)no3)c(C)c2)no1 [Example 16, 5-{3-[2,6-Dimethyl-4-(5-methoxy-1,2,4-oxadiazol-3-yl)phen-oxy]propyl}-3-methylisoxazole]
MIC50 (Human rhinovirus sp., 72 h): 0.135 µg/mL (≈ 0.393 µM) | MIC80: 0.036 µg/mL (≈ 0.105 µM)

CCOC(=O)c1nc(-c2cc(C)c(OCCCc3cc(C)no3)c(C)c2)no1 [Example 7, 5-{3-[2,6-Dimethyl-4-(5-ethoxycarbonyl-1,2,4-oxadiazol-3-yl)phenoxy]propyl}-3-methylisoxazole]
MIC50 (Human rhinovirus sp., 72 h): 99 µg/mL (≈ 257 µM) | MIC80: 99 µg/mL (≈ 257 µM)

Cc1cc(CCCOc2c(C)cc(-c3noc(CCl)n3)cc2C)on1 [Example 10, 5-{3-[4-(5-Chloromethyl-1,2,4-oxadiazol-3-yl) -2,6-dimethylphenoxy]propyl}-3-methylisoxazole]
MIC50 (Human rhinovirus sp., 72 h): 0.279 µg/mL (≈ 0.771 µM) | MIC80: 0.141 µg/mL (≈ 0.39 µM)

COCCc1cc(CCCOc2c(C)cc(-c3noc(C(F)(F)F)n3)cc2C)on1 [Example 29d, 5-{3-[2,6-Dimethyl-4-(5-trifluoromethyl-1,2,4-oxadiazol-3-yl)phenoxy]propyl}-3-(methoxyethyl)isoxazole]
MIC50 (Human rhinovirus sp., 72 h): 0.172 µg/mL (≈ 0.404 µM) | MIC80: 0.715 µg/mL (≈ 1.68 µM)

Cc1cc(-c2noc(C(F)(F)F)n2)cc(C)c1OCCCc1cc(CCO)no1 [Example 33, 5-{3-[2,6-Dimethyl-4-(5-trifluoromethyl-1,2,4-oxadiazol-3-yl)-phenoxy]propyl}-3-(2-hydroxyethyl)isoxazole]
MIC50 (Human rhinovirus sp., 72 h): 0.102 µg/mL (≈ 0.248 µM) | MIC80: 0.045 µg/mL (≈ 0.109 µM)

CCOCc1cc(CCCOc2c(C)cc(-c3noc(C(F)(F)F)n3)cc2C)on1 [Example 22, 5-{3-[2,6-Dimethyl-4-(5-trifluoromethyl-1,2,4-oxadiazol-3-yl)phenoxy]propyl}-3-(ethoxymethyl)-isoxazole]
MIC50 (Human rhinovirus sp., 72 h): 0.729 µg/mL (≈ 1.71 µM) | MIC80: 0.087 µg/mL (≈ 0.205 µM)
